Assay results reported in patent publication US10800741B2 (ANCUREALL PHARMACEUTICAL (SHANGHAI) CO., LTD., priority 2017, dated 2020).

Tests used:
Experiment in all cases: KINOMEscan in vitro binding to 468 labeled protein kinases
protein kinases [1] = biological target: T1, protein kinases (Homo sapiens, UniProt Q12866); conditions: MERTK, read-out: Test compound/solvent control (%)
T1 construct: purchased Discovery X company (USA), KINOMEscan screening platform
T1 sequence (Q12866 21-999): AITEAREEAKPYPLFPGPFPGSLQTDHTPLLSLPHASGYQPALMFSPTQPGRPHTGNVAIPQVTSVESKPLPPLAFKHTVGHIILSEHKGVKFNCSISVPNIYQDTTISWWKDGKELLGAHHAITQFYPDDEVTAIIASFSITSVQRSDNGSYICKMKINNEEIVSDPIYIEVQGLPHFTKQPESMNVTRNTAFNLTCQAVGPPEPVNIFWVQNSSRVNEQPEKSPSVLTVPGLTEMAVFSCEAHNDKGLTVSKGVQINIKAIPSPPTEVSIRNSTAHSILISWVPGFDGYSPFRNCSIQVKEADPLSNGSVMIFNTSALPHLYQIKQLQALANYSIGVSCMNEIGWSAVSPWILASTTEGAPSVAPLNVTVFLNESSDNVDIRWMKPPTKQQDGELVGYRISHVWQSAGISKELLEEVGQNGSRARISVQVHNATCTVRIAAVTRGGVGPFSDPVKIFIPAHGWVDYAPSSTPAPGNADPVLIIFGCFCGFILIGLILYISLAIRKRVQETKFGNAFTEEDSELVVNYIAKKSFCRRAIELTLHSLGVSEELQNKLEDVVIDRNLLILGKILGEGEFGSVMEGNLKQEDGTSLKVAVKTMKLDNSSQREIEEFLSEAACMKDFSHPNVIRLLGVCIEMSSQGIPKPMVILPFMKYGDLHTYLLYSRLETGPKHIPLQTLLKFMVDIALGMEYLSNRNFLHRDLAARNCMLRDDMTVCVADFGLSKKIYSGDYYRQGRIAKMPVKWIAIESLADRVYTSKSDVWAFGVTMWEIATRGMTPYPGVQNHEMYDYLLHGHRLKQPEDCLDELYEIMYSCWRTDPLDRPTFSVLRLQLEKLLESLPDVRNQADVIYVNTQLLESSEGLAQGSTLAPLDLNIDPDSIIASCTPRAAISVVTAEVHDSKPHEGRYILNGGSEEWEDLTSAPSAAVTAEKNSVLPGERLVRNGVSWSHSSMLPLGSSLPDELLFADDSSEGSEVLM
Experimental: (§1) Test Example 6 Determination of Binding Affinity of the Present Compounds on Protein Kinases In Vitro
(§2) KINOMEscan screening platform of Discovery X company (USA) was used to identify the binding targets of the present compounds to protein kinases. Compound 66 of the present invention was dissolved in DMSO (Sigma Aldrich) at concentrations of 1000 nM, 10 nM and 1 nM, and then was subjected to in vitro binding reaction with 468 labeled protein kinases. Two samples were taken in parallel for each assay sample.
(§3) The lower the percentage of the test compound to the solvent control, the stronger the binding affinity of the test compound to the protein kinase in vitro.

protein kinases [2] = biological target: T2, protein kinases (Homo sapiens, UniProt P00519, E255K); conditions: ABL1(E255K)-phosphorylated, read-out: Test compound/solvent control (%)
T2 construct: purchased Discovery X company (USA), KINOMEscan screening platform
Experimental: as §1, §2, §3

protein kinases [3] = biological target: T3, protein kinases (Homo sapiens, UniProt P10721, A829P); conditions: KIT(A829P), read-out: Test compound/solvent control (%)
T3 construct: purchased Discovery X company (USA), KINOMEscan screening platform
T3 sequence (P10721 26-976 A829P): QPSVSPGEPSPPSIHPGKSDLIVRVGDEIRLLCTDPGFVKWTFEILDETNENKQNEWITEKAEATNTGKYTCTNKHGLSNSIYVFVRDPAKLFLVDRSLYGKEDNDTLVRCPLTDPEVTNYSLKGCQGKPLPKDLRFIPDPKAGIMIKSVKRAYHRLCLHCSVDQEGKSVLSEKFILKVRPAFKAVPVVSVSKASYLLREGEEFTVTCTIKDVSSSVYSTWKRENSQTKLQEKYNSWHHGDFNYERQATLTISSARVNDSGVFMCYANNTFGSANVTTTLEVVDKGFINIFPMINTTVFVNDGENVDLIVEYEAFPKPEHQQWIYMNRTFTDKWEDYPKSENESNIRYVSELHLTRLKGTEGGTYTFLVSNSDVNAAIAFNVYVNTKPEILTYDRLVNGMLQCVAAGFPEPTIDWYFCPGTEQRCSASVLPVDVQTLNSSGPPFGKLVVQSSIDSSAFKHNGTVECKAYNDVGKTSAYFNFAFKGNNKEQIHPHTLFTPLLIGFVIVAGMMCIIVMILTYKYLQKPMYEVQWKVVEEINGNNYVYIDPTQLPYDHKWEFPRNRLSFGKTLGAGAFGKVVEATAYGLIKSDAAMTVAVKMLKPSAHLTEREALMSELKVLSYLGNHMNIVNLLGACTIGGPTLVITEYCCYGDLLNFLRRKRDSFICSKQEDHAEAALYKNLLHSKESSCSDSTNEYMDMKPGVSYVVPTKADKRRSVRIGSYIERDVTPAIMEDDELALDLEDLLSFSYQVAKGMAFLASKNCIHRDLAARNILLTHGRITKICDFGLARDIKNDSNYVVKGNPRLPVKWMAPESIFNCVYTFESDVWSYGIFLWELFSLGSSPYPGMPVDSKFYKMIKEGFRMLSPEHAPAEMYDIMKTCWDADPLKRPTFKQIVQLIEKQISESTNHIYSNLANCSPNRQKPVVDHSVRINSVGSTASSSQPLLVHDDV
Experimental: as §1, §2, §3

protein kinases [4] = biological target: T4, protein kinases (Homo sapiens, UniProt P16234); conditions: PDGFRA, read-out: Test compound/solvent control (%)
T4 construct: purchased Discovery X company (USA), KINOMEscan screening platform
Experimental: as §1, §2, §3

protein kinases [5] = biological target: T5, protein kinases (Homo sapiens, UniProt P09619); conditions: PDGFRB, read-out: Test compound/solvent control (%)
T5 construct: purchased Discovery X company (USA), KINOMEscan screening platform
Experimental: as §1, §2, §3

protein kinases [6] = biological target: T6, protein kinases (Homo sapiens, UniProt P08631); conditions: HCK, read-out: Test compound/solvent control (%)
T6 construct: purchased Discovery X company (USA), KINOMEscan screening platform
T6 sequence (P08631 whole entry): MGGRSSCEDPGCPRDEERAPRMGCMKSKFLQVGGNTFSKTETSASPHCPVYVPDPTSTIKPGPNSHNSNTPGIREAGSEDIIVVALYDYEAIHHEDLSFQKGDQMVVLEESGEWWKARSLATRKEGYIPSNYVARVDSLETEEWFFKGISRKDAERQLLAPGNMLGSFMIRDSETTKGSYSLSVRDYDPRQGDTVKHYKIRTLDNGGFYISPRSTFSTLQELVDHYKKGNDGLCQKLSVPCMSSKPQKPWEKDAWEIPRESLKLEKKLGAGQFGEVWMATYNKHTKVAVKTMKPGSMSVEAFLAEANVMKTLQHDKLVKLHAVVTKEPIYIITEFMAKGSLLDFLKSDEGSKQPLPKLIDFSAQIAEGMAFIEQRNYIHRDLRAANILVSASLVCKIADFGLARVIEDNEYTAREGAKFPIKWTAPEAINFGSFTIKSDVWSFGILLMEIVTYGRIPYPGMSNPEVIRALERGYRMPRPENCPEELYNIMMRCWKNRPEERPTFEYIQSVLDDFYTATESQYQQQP
Experimental: as §1, §2, §3

protein kinases [7] = biological target: T7, protein kinases (Homo sapiens, UniProt Q9UKE5); conditions: TNIK, read-out: Test compound/solvent control (%)
T7 construct: purchased Discovery X company (USA), KINOMEscan screening platform
T7 sequence (Q9UKE5 whole entry): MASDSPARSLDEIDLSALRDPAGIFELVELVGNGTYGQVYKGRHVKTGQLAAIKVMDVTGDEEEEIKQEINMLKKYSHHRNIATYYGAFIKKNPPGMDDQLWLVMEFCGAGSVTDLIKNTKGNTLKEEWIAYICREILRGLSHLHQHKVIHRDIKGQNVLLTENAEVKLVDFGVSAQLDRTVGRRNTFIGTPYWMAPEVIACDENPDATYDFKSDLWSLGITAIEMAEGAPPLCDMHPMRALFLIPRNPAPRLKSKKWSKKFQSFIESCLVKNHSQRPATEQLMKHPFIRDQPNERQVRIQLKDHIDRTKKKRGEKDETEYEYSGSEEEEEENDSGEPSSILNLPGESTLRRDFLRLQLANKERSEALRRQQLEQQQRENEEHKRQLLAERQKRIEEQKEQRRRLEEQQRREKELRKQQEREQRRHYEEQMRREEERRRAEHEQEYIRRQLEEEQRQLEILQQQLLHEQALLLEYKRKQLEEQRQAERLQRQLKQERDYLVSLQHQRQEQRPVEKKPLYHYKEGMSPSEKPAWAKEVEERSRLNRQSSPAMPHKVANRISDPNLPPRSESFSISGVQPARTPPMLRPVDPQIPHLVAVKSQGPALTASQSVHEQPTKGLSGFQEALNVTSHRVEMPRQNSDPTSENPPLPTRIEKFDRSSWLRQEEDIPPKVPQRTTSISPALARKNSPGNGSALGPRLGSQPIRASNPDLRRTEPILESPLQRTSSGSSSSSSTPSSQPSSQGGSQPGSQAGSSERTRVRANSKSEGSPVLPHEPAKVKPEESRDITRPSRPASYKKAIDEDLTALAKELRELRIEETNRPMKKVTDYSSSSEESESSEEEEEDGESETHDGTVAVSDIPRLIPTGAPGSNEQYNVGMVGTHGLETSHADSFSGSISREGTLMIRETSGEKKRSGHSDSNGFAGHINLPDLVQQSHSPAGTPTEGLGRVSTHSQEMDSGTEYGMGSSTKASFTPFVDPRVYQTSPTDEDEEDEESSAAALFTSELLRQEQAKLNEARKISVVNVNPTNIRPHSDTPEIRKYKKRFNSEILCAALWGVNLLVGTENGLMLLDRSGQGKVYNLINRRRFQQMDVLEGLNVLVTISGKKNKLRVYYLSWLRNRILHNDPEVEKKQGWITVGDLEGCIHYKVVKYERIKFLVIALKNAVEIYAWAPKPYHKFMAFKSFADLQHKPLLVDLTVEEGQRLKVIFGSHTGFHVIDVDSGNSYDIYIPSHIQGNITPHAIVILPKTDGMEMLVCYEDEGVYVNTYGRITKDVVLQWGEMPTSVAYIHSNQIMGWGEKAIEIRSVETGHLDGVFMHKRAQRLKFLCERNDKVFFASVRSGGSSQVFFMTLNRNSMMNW
Experimental: as §1, §2, §3

protein kinases [8] = biological target: T8, protein kinases (Homo sapiens, UniProt P22455); conditions: FGFR4, read-out: Test compound/solvent control (%)
T8 construct: purchased Discovery X company (USA), KINOMEscan screening platform
T8 sequence (P22455 22-802): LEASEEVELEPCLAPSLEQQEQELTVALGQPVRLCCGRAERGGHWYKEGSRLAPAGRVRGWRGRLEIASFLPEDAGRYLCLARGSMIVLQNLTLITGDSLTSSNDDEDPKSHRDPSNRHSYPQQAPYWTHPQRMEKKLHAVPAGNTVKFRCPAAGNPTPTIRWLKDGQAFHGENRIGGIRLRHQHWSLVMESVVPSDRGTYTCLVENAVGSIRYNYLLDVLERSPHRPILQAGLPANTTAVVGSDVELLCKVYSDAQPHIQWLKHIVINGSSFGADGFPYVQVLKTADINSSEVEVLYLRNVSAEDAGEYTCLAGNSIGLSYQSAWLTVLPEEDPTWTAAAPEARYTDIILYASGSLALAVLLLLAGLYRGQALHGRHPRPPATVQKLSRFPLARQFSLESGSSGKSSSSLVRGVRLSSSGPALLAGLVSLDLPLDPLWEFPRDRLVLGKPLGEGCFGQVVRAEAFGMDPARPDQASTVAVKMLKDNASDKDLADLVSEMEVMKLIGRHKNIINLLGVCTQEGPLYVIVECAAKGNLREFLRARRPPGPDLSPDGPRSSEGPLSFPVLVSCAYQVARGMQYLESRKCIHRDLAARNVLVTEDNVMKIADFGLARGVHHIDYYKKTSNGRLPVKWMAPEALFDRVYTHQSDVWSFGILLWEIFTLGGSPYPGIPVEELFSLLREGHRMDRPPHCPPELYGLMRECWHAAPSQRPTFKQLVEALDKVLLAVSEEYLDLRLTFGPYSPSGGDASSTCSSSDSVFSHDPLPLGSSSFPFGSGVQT
Experimental: as §1, §2, §3

protein kinases [9] = biological target: T9, protein kinases (Homo sapiens, UniProt Q16288); conditions: TRKC (NTRK3), read-out: Test compound/solvent control (%)
T9 construct: purchased Discovery X company (USA), KINOMEscan screening platform
T9 sequence (Q16288 32-839): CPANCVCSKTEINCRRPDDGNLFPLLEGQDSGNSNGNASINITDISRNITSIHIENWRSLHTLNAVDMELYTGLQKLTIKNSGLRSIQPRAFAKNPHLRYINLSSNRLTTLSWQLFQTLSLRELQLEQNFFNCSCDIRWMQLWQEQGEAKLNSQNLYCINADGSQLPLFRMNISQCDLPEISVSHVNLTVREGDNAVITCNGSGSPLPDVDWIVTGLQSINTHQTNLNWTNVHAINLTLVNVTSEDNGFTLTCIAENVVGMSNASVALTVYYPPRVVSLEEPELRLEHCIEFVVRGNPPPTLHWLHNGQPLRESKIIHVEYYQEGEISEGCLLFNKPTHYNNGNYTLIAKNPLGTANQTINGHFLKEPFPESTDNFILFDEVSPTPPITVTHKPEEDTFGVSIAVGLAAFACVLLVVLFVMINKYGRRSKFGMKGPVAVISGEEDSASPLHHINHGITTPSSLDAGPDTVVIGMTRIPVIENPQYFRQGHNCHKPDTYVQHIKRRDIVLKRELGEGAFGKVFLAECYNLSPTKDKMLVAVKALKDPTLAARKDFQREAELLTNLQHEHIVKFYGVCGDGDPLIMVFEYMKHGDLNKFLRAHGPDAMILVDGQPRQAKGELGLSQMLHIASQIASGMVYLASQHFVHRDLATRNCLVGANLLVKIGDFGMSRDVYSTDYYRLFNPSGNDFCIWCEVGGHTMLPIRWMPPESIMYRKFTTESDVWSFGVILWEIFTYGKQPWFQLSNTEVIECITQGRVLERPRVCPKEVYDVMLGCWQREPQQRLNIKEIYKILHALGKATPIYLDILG
Experimental: as §1, §2, §3

## COCCOc1cc2nccc(Oc3ccc(NC(=O)Nc4cc(C(C)(C)C)n[nH]4)c(Cl)c3)c2cc1NC(C)=O [Compound 66, N-[4-{4-[3-(5-tert-butyl-2H-pyrazol-3-yl)-ureido]-3-chloro-phenoxy}-7-(2-methoxy-ethoxy)-quinolin-6-yl]-acetamide]
Protein kinases [1]; 1 nM
  remaining binding at 0.001 µM: 57%
Protein kinases [1]; 10 nM
  remaining binding at 0.01 µM: 4.1%
Protein kinases [1]; 1000 nM
  remaining binding at 1 µM: 0.65%
Protein kinases [2]; 1 nM
  remaining binding at 0.001 µM: 50%
Protein kinases [2]; 10 nM
  remaining binding at 0.01 µM: 7.6%
Protein kinases [2]; 1000 nM
  remaining binding at 1 µM: 0.1%
Protein kinases [3]; 1 nM
  remaining binding at 0.001 µM: 84%
Protein kinases [3]; 10 nM
  remaining binding at 0.01 µM: 22%
Protein kinases [3]; 1000 nM
  remaining binding at 1 µM: 0%
Protein kinases [4]; 1 nM
  remaining binding at 0.001 µM: 88%
Protein kinases [4]; 10 nM
  remaining binding at 0.01 µM: 34%
Protein kinases [4]; 1000 nM
  remaining binding at 1 µM: 0.15%
Protein kinases [5]; 1 nM
  remaining binding at 0.001 µM: 81%
Protein kinases [5]; 10 nM
  remaining binding at 0.01 µM: 6.2%
Protein kinases [5]; 1000 nM
  remaining binding at 1 µM: 0%
Protein kinases [6]; 1 nM
  remaining binding at 0.001 µM: 60%
Protein kinases [6]; 10 nM
  remaining binding at 0.01 µM: 1.7%
Protein kinases [6]; 1000 nM
  remaining binding at 1 µM: 0%
Protein kinases [7]; 1 nM
  remaining binding at 0.001 µM: 44%
Protein kinases [7]; 10 nM
  remaining binding at 0.01 µM: 6.4%
Protein kinases [7]; 1000 nM
  remaining binding at 1 µM: 7%
Protein kinases [8]; 1 nM
  remaining binding at 0.001 µM: 93%
Protein kinases [8]; 10 nM
  remaining binding at 0.01 µM: 74%
Protein kinases [8]; 1000 nM
  remaining binding at 1 µM: 0%
Protein kinases [9]; 1 nM
  remaining binding at 0.001 µM: 84%
Protein kinases [9]; 10 nM
  remaining binding at 0.01 µM: 28%
Protein kinases [9]; 1000 nM
  remaining binding at 1 µM: 0.2%
